Measured values from PMC5589878, “Development of Fluorescent Probes that Target Serotonin 5-HT2B Receptors” (Scientific Reports, 2017).
Where two headings read alike, the source gives them in different places.

Assays:
5-HT2B receptors [1] = target: T1, 5-HT2B receptors (Homo sapiens, UniProt P41595); experiment: Radioligand competition binding assay at human 5-HT2B receptors
5-HT2A receptors = 5-HT2A receptors (Homo sapiens, UniProt P28223); experiment: Radioligand competition binding assay at human 5-HT2A receptors; set-up: expressed in transfected cells; host or cells: CHO-FA4-5-HT2A cells (membranes)
human 5-HT2C receptors = target: T2, human 5-HT2C receptors (Homo sapiens, UniProt P28335); experiment: Radioligand competition binding assay at human 5-HT2C receptors; conditions: for Binding at 5-HT2 receptors % at 1 μM 5-HT2C: [3H]Mesulergine, membranes from HeLa-5-HT2C cells
T2 construct: expressed in transfected cells; host or cells: HeLa-5-HT2C cells (membranes)
T2 sequence (P28335 33-458): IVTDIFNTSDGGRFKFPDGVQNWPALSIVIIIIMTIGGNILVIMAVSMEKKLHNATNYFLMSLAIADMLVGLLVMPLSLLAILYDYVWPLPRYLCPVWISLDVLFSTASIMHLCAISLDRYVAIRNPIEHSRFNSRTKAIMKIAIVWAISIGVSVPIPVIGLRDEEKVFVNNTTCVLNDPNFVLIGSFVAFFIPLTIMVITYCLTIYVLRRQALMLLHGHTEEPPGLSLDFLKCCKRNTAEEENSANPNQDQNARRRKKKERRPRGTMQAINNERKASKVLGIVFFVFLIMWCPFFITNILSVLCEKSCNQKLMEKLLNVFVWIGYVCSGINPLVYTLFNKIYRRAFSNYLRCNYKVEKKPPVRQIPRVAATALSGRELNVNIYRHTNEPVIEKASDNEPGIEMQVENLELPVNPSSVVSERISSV

5-HT2B receptors [2] = target: T1, 5-HT2B receptors; experiment: Functional assay of IPs accumulation at human 5-HT2B receptors; assay type: cell-based
Method: After 24 h, growth medium was replaced by serum-free medium containing 10 μCi/mL [^3H]myo-inositol (20.3 Ci/mmol, Perkin-Elmer) for 24 h. […] After the incubation time, assay buffer was discarded and 200 μL of 100 mM formic acid was added to the cells for 30 min at 4 °C and 20 μL of the lysate were transferred to a flexiplate plate (Perkin-Elmer, Waltham, MA, USA) together with 80 μL of a solution of RNA Binding YSi SPA Beads (Perkin-Elmer, Waltham, MA, USA) to measure accumulation of [^3H]IPs (IP1,IP2, and IP3, collectively referred to as IPs).

[3] = Absorption and emission spectra (photophysical properties); assay type: physicochemical; conditions: 10 μM solutions
Method: The absorption and emission spectra of the fluorescent 5-HT2 ligands (10 and 12) were determined on 10 μM solutions. The most relevant fluorescent properties are collected in Fig. 5. All of the synthesized derivatives emitted fluorescence in the visible region of the spectrum, with selected fluorescent tags (Fig. 4) providing distinctive properties and excitation wavelengths. The excitation wavelengths varied from 305 to 555 nm, whereas those for emission varied from 398 to 580 nm.

5-HT2A receptors, sequence (P28223 whole entry): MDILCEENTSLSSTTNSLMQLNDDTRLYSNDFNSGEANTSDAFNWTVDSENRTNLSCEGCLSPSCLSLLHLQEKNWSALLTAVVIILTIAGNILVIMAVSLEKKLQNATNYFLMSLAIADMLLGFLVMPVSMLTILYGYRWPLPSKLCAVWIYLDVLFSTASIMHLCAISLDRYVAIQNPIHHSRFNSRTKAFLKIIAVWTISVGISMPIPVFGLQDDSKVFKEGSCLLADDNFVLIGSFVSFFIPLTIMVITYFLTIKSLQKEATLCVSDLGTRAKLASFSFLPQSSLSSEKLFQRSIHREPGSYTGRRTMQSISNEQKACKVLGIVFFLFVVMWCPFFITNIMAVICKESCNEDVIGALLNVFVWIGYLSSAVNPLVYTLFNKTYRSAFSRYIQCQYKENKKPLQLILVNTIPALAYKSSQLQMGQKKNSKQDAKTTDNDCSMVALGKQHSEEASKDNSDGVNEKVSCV
T1 sequence (P41595 whole entry): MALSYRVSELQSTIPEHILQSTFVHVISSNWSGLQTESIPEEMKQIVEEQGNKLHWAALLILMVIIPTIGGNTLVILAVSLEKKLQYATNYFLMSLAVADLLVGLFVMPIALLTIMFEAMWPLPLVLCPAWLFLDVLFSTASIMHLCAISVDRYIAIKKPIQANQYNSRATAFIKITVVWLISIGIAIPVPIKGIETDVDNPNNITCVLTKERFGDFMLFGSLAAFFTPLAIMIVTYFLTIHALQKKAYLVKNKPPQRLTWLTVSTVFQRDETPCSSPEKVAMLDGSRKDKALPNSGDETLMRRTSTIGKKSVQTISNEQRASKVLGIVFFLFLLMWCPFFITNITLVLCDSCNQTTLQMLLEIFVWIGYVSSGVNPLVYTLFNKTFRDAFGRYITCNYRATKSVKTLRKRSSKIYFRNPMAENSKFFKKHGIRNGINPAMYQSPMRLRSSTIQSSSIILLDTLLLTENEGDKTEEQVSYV

Molecule	Ki (5-HT2B receptors [1])	Ki (5-HT2A receptors)	Ki (human 5-HT2C receptors)	EC50 (5-HT2B receptors [2])	Δλ (Stokes shift) [3]	εmax [3]	λmax Abs [3]	λmax Em [3]	Ki (5-HT2A receptors; [3H]Ketanserin, membranes from CHO-FA4-5-HT2A cells, read-out: Binding at 5-HT2 receptors Ki 5-HT2A)	Binding at 5-HT2 receptors % at 1 μM 5-HT2C (human 5-HT2C receptors)	Binding at 5-HT2 receptors % at 1 μM 5-HT2A (5-HT2A receptors; at 1 μM, [3H]Ketanserin, membranes from CHO-FA4-5-HT2A cells)	melting point
COC(=O)c1c(C(=O)OCCCNC(=O)CCCOc2cc(I)c(OC)cc2CC(C)N)c2ccccc2c2ccccc12 (centres unmarked) [12d, 9-(3-(4-(2-(2-aminopropyl)-5-iodo-4-methoxyphenoxy)butanamido)pro-pyl)-10-methyl phenanthrene-9,10-dicarboxylate]	140 nM	3980 nM	1100 nM	25.6 nM	98 nm	6813 M⁻¹ cm⁻¹	305 nm	403 nm				
COc1cc(CC(C)N)c(OCCCC(=O)NCCCN2C(=O)c3c(c4ccccc4c4ccccc34)C2=O)cc1I (centres unmarked) [12c, 4-(2-(2-aminopropyl)-5-iodo-4-methoxyphenoxy)-N-(3-(1,3-dioxo-1,3-dihydro-2H-dibenzo[e,g]isoindol-2-yl)propyl)butanamide]	86.9 nM	5180 nM	616 nM	24.9 nM	76 nm	2758 M⁻¹ cm⁻¹	390 nm	466 nm				
COc1cc(CC(C)N)c(OCCCCCCC(=O)NCCCNS(=O)(=O)c2cccc3c(N(C)C)cccc23)cc1I (centres unmarked) [10b, 7-(2-(2-aminopropyl)-5-iodo-4-methoxyphenoxy)-N-(3-((5-(dimethylami-no)naphthalene)-1-sulfonamido)propyl)heptanamide]	167 nM	41200 nM	295 nM	245 nM								
COc1cc(CC(C)N)c(OCCCC(=O)NCCCNS(=O)(=O)c2cccc3c(N(C)C)cccc23)cc1I (centres unmarked) [10a, 4-(2-(2-aminopropyl)-5-iodo-4-methoxyphenoxy)-N-(3-((5-(dimethyl-amino)naphthalene)-1-sulfonamido)propyl)butanamide]	112 nM	1710 nM	273 nM	89.1 nM	147 nm	2726 M⁻¹ cm⁻¹	350 nm	497 nm				
3-(2-(2-(2-(2-aminopropyl)-5-iodo-4-methoxyphenoxy)ethoxy)ethoxy)-N-(3-((5-(dimethylamino)naphthalene)-1-sulfonamido)propyl)propanamide [10d]									13000 nM	3%		
COC(=O)c1c(C(=O)OCCCNC(=O)CCCOc2cc(I)c(OC)cc2CC(C)N)c2cc3c(cc2c2cc4c(cc12)CCC4)CCC3 (centres unmarked) [12f, 5-(3-(4-(2-(2-aminopropyl)-5-iodo-4-methoxyphenoxy)butanamido)pro-pyl)-6-methyl-1,2,3,8,9,10-hexahydrodicyclopenta[b,h]phenanthrene-5,6-dicarbo-xylate]	136 nM	2320 nM	1030 nM	47 nM	119 nm	12078 M⁻¹ cm⁻¹	309 nm	428 nm				
COc1cc(CC(C)N)c(OCCCCCCCCCCC(=O)NCCCNS(=O)(=O)c2cccc3c(N(C)C)cccc23)cc1I (centres unmarked) [10c, 11-(2-(2-aminopropyl)-5-iodo-4-methoxyphenoxy)-N-(3-((5-(dimethyl-amino)naphthalene)-1-sulfonamido)propyl)undecanamide]	806 nM									1%	2%	171 to 173 °C
COC(=O)c1c(C(=O)OCCCNC(=O)CCCOc2cc(I)c(OC)cc2CC(C)N)c2cc(F)c(F)cc2c2cc(F)c(F)cc12 (centres unmarked) [12e, 9-(3-(4-(2-(2-aminopropyl)-5-iodo-4-methoxyphenoxy)butanamido)pro-pyl) 10-methyl 2,3,6,7-tetrafluorophenanthrene-9,10-dicarboxylate]	148 nM	2570 nM	2280 nM	9.45 nM	83 nm	18295 M⁻¹ cm⁻¹	315 nm	398 nm				
